According to patent publication US10730858B2, “Lactam, cyclic urea and carbamate, and triazolone derivatives as potent and selective rock inhibitors” (BRISTOL-MYERS SQUIBB COMPANY, priority 2016, dated 2020):

Tests used:
ROCK2 = ROCK2 (Homo sapiens, UniProt O75116); test: ROCK2 assay (Caliper LABCHIP peptide phosphorylation, kinase inhibition); format: biochemical; conditions: 5 μM ATP, 1.5 μM peptide substrate
Experimental: The effectiveness of compounds of the present invention as ROCK inhibitors can be determined in a 30 μL assay containing 20 mM HEPES, pH 7.5, 20 mM MgCl2, 0.015% Brij-35, 4 mM DTT, 5 μM ATP and 1.5 μM peptide substrate (FITC-AHA-AKRRRLSSLRA-OH) (SEQ ID NO. 1). Compounds were dissolved in DMSO so that the final concentration of DMSO was <2%, and the reaction was initiated with Rho kinase variants. After incubation, the reaction was terminated by the addition of EDTA and the phosphorylated and non-phosphorylated peptides separated using a LABCHIP® 3000 Reader (Caliper Life Sciences). […] Compounds were tested in dose-response format, and the inhibition of kinase activity was calculated at each concentration of compound. The inhibition data were fit using a curve-fitting program to determine the IC50; i.e., the concentration of compound required to inhibit 50% of kinase activity.
Representative Examples were tested in the ROCK2 assay described above and found having ROCK2 inhibitory activity. The ranges of the ROCK2 IC50 values are as follows: ROCK2 IC50: ++++ (<10 nM) +++ (10-100 nM) ++ (100-500 nM) + (500-2000 nM)

[1] = test system: IL-1 beta-induced coronary stenosis; conditions: long term treatment; cited from earlier work
rat stroke model = conditions: in vivo; cited from earlier work

Chain of ROCK2 (O75116 whole entry, species assumed): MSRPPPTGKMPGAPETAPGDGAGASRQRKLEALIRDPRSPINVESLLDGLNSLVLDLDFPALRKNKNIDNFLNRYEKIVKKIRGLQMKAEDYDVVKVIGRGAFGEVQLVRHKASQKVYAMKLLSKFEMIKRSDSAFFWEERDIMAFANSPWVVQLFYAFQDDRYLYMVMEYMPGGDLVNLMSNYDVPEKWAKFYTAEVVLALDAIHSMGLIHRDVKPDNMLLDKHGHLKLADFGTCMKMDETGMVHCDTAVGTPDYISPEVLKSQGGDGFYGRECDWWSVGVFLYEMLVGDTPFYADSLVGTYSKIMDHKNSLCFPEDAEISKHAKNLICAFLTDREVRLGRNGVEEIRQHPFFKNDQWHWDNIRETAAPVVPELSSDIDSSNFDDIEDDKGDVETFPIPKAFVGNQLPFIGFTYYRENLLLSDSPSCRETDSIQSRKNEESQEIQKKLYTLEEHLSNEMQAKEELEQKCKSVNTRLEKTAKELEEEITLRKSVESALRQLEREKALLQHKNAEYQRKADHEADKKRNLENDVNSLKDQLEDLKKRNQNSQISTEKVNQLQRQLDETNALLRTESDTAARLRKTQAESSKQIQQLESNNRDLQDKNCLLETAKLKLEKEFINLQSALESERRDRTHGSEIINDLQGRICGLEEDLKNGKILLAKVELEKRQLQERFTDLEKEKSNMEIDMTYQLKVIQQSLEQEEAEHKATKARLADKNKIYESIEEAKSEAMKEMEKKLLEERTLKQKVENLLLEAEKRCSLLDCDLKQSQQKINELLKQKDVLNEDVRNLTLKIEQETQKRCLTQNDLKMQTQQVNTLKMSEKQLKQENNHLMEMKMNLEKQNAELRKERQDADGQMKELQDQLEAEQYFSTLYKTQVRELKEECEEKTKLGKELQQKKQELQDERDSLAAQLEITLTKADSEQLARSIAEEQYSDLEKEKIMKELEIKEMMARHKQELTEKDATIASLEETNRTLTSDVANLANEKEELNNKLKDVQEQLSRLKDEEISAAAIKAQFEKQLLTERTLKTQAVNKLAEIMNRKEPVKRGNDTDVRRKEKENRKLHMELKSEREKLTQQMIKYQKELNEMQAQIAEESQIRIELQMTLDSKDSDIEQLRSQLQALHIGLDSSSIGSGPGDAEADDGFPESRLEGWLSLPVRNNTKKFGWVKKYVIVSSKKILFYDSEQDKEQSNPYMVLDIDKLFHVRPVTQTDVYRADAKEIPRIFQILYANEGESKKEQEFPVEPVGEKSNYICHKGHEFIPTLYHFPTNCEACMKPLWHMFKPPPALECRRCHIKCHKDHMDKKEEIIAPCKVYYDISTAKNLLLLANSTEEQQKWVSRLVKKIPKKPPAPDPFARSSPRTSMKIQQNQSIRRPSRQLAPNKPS

Row | Compound | IC50 (ROCK2) | other results
1 | COc1cccc([C@@H](C)NC2CCN(c3ccc(-c4n[nH]c(=O)c5ccccc45)cc3)C2=O)c1 (stereo partly drawn) [Example 44, 4-[4-(3-{[(1R)-1-(3-methoxyphenyl)ethyl]amino}-2-oxopyrrolidin-1-yl)phenyl]-1,2-dihydrophthalazin-1-one] | 500 to 2000 nM | –
2 | O=C1C(NCCc2ccccc2)CCN1c1ccc(-c2n[nH]c(=O)c3ccccc23)cc1 (stereo not drawn) [Example 45, 4-(4-{2-oxo-3-[(2-phenylethyl)amino]pyrrolidin-1-yl}phenyl)-1,2-dihydrophthalazin-1-one] | 500 to 2000 nM | –
3 | COc1cccc(Cn2cnn(-c3ccc(-c4n[nH]c(=O)c5ccccc45)cc3)c2=O)c1 [Example 46, 4-(4-{4-[(3-methoxyphenyl)methyl]-5-oxo-4,5-dihydro-1H-1,2,4-triazol-1-yl}phenyl)-1,2-dihydrophthalazin-1-one] | 100 to 500 nM | –
4 | O=c1n(Cc2ccccc2)cnn1-c1ccc(-c2n[nH]c(=O)n3cccc23)cc1 [Example 47, 4-benzyl-1-(4-{4-oxo-3H,4H-pyrrolo[1,2-d][1,2,4]triazin-1-yl}phenyl)-4,5-dihydro-1H-1,2,4-triazol-5-one] | 500 to 2000 nM | –
5 | COc1cc(NC2CCN(c3ccc(-c4n[nH]c(=O)c5ccccc45)cc3)C2=O)ccc1N1CCN(C)CC1 (stereo not drawn) [Example 48, 4-[4-(3-{[3-methoxy-4-(4-methylpiperazin-1-yl)phenyl]amino}-2-oxopyrrolidin-1-yl)phenyl]-1,2-dihydrophthalazin-1-one] | 10 to 100 nM | –
6 | COc1cc(NC2CCN(c3ccc(-c4n[nH]c(=O)c5ccccc45)cc3)C2=O)ccc1N1CCOCC1 (stereo not drawn) [Example 49, 4-[4-(3-{[3-methoxy-4-(morpholin-4-yl)phenyl]amino}-2-oxopyrrolidin-1-yl)phenyl]-1,2-dihydrophthalazin-1-one] | 10 to 100 nM | –
7 | O=C1C(Nc2ccc3c(c2)OCCO3)CCN1c1ccc(-c2n[nH]c(=O)c3ccccc23)cc1 (stereo not drawn) [Example 50, 4-(4-{3-[(2,3-dihydro-1,4-benzodioxin-6-yl)amino]-2-oxopyrrolidin-1-yl}phenyl)-1,2-dihydrophthalazin-1-one] | 10 to 100 nM | –
8 | O=C1C(Nc2ccc3c(c2)OC(F)(F)O3)CCN1c1ccc(-c2n[nH]c(=O)c3ccccc23)cc1 (stereo not drawn) [Example 51, 4-(4-{3-[(2,2-difluoro-2H-1,3-benzodioxol-5-yl)amino]-2-oxopyrrolidin-1-yl}phenyl)-1,2-dihydrophthalazin-1-one] | 10 to 100 nM | –
9 | O=C1C(Nc2cccc(OC(F)(F)F)c2)CCN1c1ccc(-c2n[nH]c(=O)c3ccccc23)cc1 (stereo not drawn) [Example 52, 4-[4-(2-oxo-3-{[3-(trifluoromethoxy)phenyl]amino}pyrrolidin-1-yl)phenyl]-1,2-dihydrophthalazin-1-one] | < 10 nM | –
10 | O=c1[nH]nc(-c2ccc(-n3ncn(Cc4cccc(F)c4)c3=O)cc2)c2ccccc12 [Example 53, 4-(4-{4-[(3-fluorophenyl)methyl]-5-oxo-4,5-dihydro-1H-1,2,4-triazol-1-yl}phenyl)-1,2-dihydrophthalazin-1-one] | 100 to 500 nM | –
11 | CC(c1ccccc1)n1cnn(-c2ccc(-c3n[nH]c(=O)c4ccccc34)cc2)c1=O (stereo not drawn) [Example 54, 4-{4-[5-oxo-4-(1-phenylethyl)-4,5-dihydro-1H-1,2,4-triazol-1-yl]phenyl}-1,2-dihydrophthalazin-1-one] | 500 to 2000 nM | –
12 | CC(C)Oc1cccc(NC2CCN(c3ccc(-c4n[nH]c(=O)c5ccccc45)cc3)C2=O)c1 (stereo not drawn) [Example 57, 4-[4-(2-oxo-3-{[3-(propan-2-yloxy)phenyl]amino}pyrrolidin-1-yl)phenyl]-1,2-dihydrophthalazin-1-one] | 10 to 100 nM | –
13 | N#Cc1cnc(NC2CCN(c3ccc(-c4n[nH]c(=O)c5ccccc45)cc3)C2=O)s1 (stereo not drawn) [Example 59, 2-({2-oxo-1-[4-(4-oxo-3,4-dihydrophthalazin-1-yl)phenyl]pyrrolidin-3-yl}amino)-1,3-thiazole-5-carbonitrile] | 100 to 500 nM | –
14 | O=C1C(Nc2ccc(OC(F)F)cc2)CCN1c1ccc(-c2n[nH]c(=O)c3ccccc23)cc1 (stereo not drawn) [Example 60, 4-[4-(3-{[4-(difluoromethoxy)phenyl]amino}-2-oxopyrrolidin-1-yl)phenyl]-1,2-dihydrophthalazin-1-one] | 10 to 100 nM | –
15 | COc1ccccc1NC1CCN(c2ccc(-c3n[nH]c(=O)c4ccccc34)cc2)C1=O (stereo not drawn) [Example 61, 4-(4-{3-[(2-methoxyphenyl)amino]-2-oxopyrrolidin-1-yl}phenyl)-1,2-dihydrophthalazin-1-one] | 10 to 100 nM | –
16 | O=c1[nH]nc(-c2ccc(-n3ncn(Cc4cccc(OC(F)F)c4)c3=O)cc2)c2ccccc12 [Example 63, 4-[4-(4-{[3-(difluoromethoxy)phenyl]methyl}-5-oxo-4,5-dihydro-1H-1,2,4-triazol-1-yl)phenyl]-1,2-dihydrophthalazin-1-one] | 100 to 500 nM | –

Row | Compound | IC50 (ROCK2) | other results
17 | CC(C)n1ccc(NC2CCN(c3ccc(-c4n[nH]c(=O)c5ccccc45)cc3)C2=O)n1 (stereo not drawn) [Example 64, 4-[4-(2-oxo-3-{[1-(propan-2-yl)-1H-pyrazol-3-yl]amino}pyrrolidin-1-yl)phenyl]-1,2-dihydrophthalazin-1-one] | 10 to 100 nM | –
18 | Cn1ccc(NC2CCN(c3ccc(-c4n[nH]c(=O)c5ccccc45)cc3)C2=O)n1 (stereo not drawn) [Example 65, 4-(4-{3-[(1-methyl-1H-pyrazol-3-yl)amino]-2-oxopyrrolidin-1-yl}phenyl)-1,2-dihydrophthalazin-1-one] | 100 to 500 nM | –
19 | CS(=O)(=O)c1cccc(NC2CCN(c3ccc(-c4n[nH]c(=O)c5ccccc45)cc3)C2=O)c1 (stereo not drawn) [Example 67, 4-(4-{3-[(3-methanesulfonylphenyl)amino]-2-oxopyrrolidin-1-yl}phenyl)-1,2-dihydrophthalazin-1-one] | 10 to 100 nM | –
20 | CSc1cccc(NC2CCN(c3ccc(-c4n[nH]c(=O)c5ccccc45)cc3)C2=O)c1 (stereo not drawn) [Example 68, 4-[4-(3-{[3-(methylsulfanyl)phenyl]amino}-2-oxopyrrolidin-1-yl)phenyl]-1,2-dihydrophthalazin-1-one] | 10 to 100 nM | –
21 | O=C1C(Nc2cccc(F)n2)CCN1c1ccc(-c2n[nH]c(=O)c3ccccc23)cc1 (stereo not drawn) [Example 69, 4-(4-{3-[(6-fluoropyridin-2-yl)amino]-2-oxopyrrolidin-1-yl}phenyl)-1,2-dihydrophthalazin-1-one] | 10 to 100 nM | –
22 | O=C1C(Nc2ccc3c(c2)CCNC3)CCN1c1ccc(-c2n[nH]c(=O)c3ccccc23)cc1 (stereo not drawn) [Example 70, 4-(4-{2-oxo-3-[(1,2,3,4-tetrahydroisoquinolin-6-yl)amino]pyrrolidin-1-yl}phenyl)-1,2-dihydrophthalazin-1-one] | 100 to 500 nM | –
23 | CC(C)c1cc(NC2CCN(c3ccc(-c4n[nH]c(=O)c5ccccc45)cc3)C2=O)n(C)n1 (stereo not drawn) [Example 71, 4-[4-(3-{[1-methyl-3-(propan-2-yl)-1H-pyrazol-5-yl]amino}-2-oxopyrrolidin-1-yl)phenyl]-1,2-dihydrophthalazin-1-one] | 10 to 100 nM | –
24 | COc1cccc(Cn2c(C)nn(-c3ccc(-c4c[nH]c(=O)c5ccsc45)cc3)c2=O)c1 [Example 72, 4-[(3-methoxyphenyl)methyl]-3-methyl-1-(4-{4-oxo-3aH,4H,5H,7aH-thieno[3,2-c]pyridin-7-yl}phenyl)-4,5-dihydro-1H-1,2,4-triazol-5-one] | 500 to 2000 nM | –
25 | N#Cc1ccnc(NC2CCN(c3ccc(-c4n[nH]c(=O)c5ccccc45)cc3)C2=O)c1 (stereo not drawn) [Example 74, 2-({2-oxo-1-[4-(4-oxo-3,4-dihydrophthalazin-1-yl)phenyl]pyrrolidin-3-yl}amino)pyridine-4-carbonitrile] | 10 to 100 nM | –
26 | CN1CCc2cc(NC3CCN(c4ccc(-c5n[nH]c(=O)c6ccccc56)cc4)C3=O)ccc2C1 (stereo not drawn) [Example 75, 4-(4-{3-[(2-methyl-1,2,3,4-tetrahydroisoquinolin-6-yl)amino]-2-oxopyrrolidin-1-yl}phenyl)-1,2-dihydrophthalazin-1-one] | 500 to 2000 nM | –
27 | COc1cccc(OC2CCN(c3ccc(-c4n[nH]c(=O)c5ccccc45)cc3)C2=O)c1 (stereo not drawn) [Example 86, 4-{4-[3-(3-methoxyphenoxy)-2-oxopyrrolidin-1-yl]phenyl}-1,2-dihydrophthalazin-1-one] | 10 to 100 nM | –
28 | COc1ccc(F)c(OC2CCN(c3ccc(-c4n[nH]c(=O)c5ccccc45)cc3)C2=O)c1 (stereo not drawn) [Example 87, 4-{4-[3-(2-fluoro-5-methoxyphenoxy)-2-oxopyrrolidin-1-yl]phenyl}-1,2-dihydrophthalazin-1-one] | 10 to 100 nM | –
29 | COc1cc(OC2CCN(c3ccc(-c4n[nH]c(=O)c5ccccc45)cc3)C2=O)ccc1F (stereo not drawn) [Example 88, 4-{4-[3-(4-fluoro-3-methoxyphenoxy)-2-oxopyrrolidin-1-yl]phenyl}-1,2-dihydrophthalazin-1-one] | 10 to 100 nM | –
30 | COc1cc(F)cc(OC2CCN(c3ccc(-c4n[nH]c(=O)c5ccccc45)cc3)C2=O)c1 (stereo not drawn) [Example 89, 4-{4-[3-(3-fluoro-5-methoxyphenoxy)-2-oxopyrrolidin-1-yl]phenyl}-1,2-dihydrophthalazin-1-one] | 10 to 100 nM | –
31 | O=S(=O)(c1cccc2cnccc12)N1CCCNCC1 [fasudil] | – | coronary constrictive remodeling [1]: promote a regression of coronary constrictive remodeling; coronary stenosis [1]: progressively reduce coronary stenosis; infarct size and neurologic deficit (rat stroke model): reduce both the infarct size and neurologic deficit
